# Experimental data published in ChEMBL document CHEMBL4376882, “Photodynamic Therapy for ras-Driven Cancers: Targeting G-Quadruplex RNA Structures with Bifunctional Alkyl-Modified Porphyrins” (J Med Chem, 2020).
# Active and inactive are the calls of the source. The rule behind the calls is not given here.
# What was measured:
# PANC-1 [1] = assay: Induction of apoptosis in human PANC1 cells assessed as necrotic cells at 15 nM and photoirradiated at 7.2 J/cm2 measured after 6 to 24 hrs in presence of NAC by annexin-V-propidium iodide staining based FACScalibur flow cytometry analysis (reference value: 1 %); assay type: functional
# PANC-1 [2] = assay: Induction of apoptosis in human PANC1 cells assessed as late apoptotic cells at 10 nM and photoirradiated at 7.2 J/cm2 measured after 6 to 24 hrs in presence of NAC by annexin-V-propidium iodide staining based FACScalibur flow cytometry analysis (reference value: 1.3 %); assay type: functional
# [3] = Aggregation property of compound at > 40 degree C; assay type: physicochemical
# PANC-1 [4] = assay: Induction of apoptosis in human PANC1 cells assessed as late apoptotic cells at 5 nM and photoirradiated at 7.2 J/cm2 measured after 6 to 24 hrs in presence of NAC by annexin-V-propidium iodide staining based FACScalibur flow cytometry analysis (reference value: 1.3 %); assay type: functional
# PANC-1 [5] = assay: Induction of apoptosis in human PANC1 cells assessed as early apoptotic cells at 5 nM and photoirradiated at 7.2 J/cm2 measured after 6 to 24 hrs in presence of NAC by annexin-V-propidium iodide staining based FACScalibur flow cytometry analysis (reference value: 3.1 %); assay type: functional
# [6] = Induction of ROS-mediated Cys5.5 labelled utr-z RNA duplex (unknown origin) degradation at 0.6 uM incubated for 30 mins followed by photoirradiation for 15 to 30 mins by PAGE analysis
# PANC-1 [7] = assay: Induction of apoptosis in human PANC1 cells assessed as late apoptotic cells at 10 nM and photoirradiated at 7.2 J/cm2 measured after 6 to 24 hrs by annexin-V-propidium iodide staining based FACScalibur flow cytometry analysis (reference value: 2.7 %); assay type: functional
# PANC-1 [8] = assay: Induction of apoptosis in human PANC1 cells assessed as early apoptotic cells at 5 nM and photoirradiated at 7.2 J/cm2 measured after 6 to 24 hrs by annexin-V-propidium iodide staining based FACScalibur flow cytometry analysis (reference value: 4.6 %); assay type: functional
# Quadruplex DNA [9] = assay: Induction of ROS-mediated […] labeled Ras RNA g-quadruplex (unknown origin) degradation assessed as residual RNA g-quadruplex at 0.6 uM incubated for 15 to 30 mins followed by photoirradiation for 30 mins by PAGE analysis relative to control; assay type: nucleic-acid assay
# [10] = Drug uptake in human PANC1 cells at 5 uM and 4 degree C after 16 hrs by FACS analysis relative to 37 degree C; assay type: ADME, cell-based; settings: panc-1, 16 h
# [11] = Toxicity in SCID mouse xenografted with human PANC1 cells assessed as tissue damage around the irradiated tumor at 3 mg/kg administered intratumorally after 2 hrs photoirradiated by diode laser at 193 J/cm2; assay type: organism-based; settings: in vivo, other
# [12] = Drug localization in cytoplasm of human PANC1 cells at 5 uM after 6 hrs by Hoechst staining based confocal microscopy; assay type: ADME, subcellular; settings: panc-1, 6 h
# PANC-1 [13] = assay: Cytotoxicity against human PANC1 cells assessed as reduction in metabolic activity at 20 nM after 24 to 72 hrs in dark followed by photoirradiation in presence of NADH by resazurin assay; assay type: functional, cell-based
# [14] = target: GTPase NRas (Homo sapiens) (UniProt P01111); assay: Inhibition of NRAS in human PANC1 cells assessed as downregulation of NRAS expression at 15 nM followed by 7.2 J/cm2 irradiation after 4 hrs by Western blot analysis (reference value: 25 %); assay type: cell-based
# Sequence of GTPase NRas (Homo sapiens) (P01111 whole entry): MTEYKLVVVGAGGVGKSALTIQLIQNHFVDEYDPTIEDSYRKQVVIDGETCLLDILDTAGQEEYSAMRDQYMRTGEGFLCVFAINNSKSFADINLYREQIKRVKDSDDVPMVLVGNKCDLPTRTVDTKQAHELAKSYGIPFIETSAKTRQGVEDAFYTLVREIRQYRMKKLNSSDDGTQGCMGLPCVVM
# Quadruplex DNA [15] = assay: Binding affinity to human KRAS utr-z RNA g-quadruplex by fluorescence spectroscopy; assay type: nucleic-acid assay
# [16] = target: GTPase NRas (Homo sapiens) (UniProt P01111); assay: Inhibition of NRAS in human PANC1 cells assessed as decrease in NRAS mRNA level at 15 nM followed by 7.2 J/cm2 irradiation after 4 hrs by qRT-PCR analysis; assay type: cell-based
# Quadruplex DNA [17] = assay: Induction of ROS-mediated […] labeled Ras RNA g-quadruplex (unknown origin) degradation at 0.6 uM incubated for 30 mins in presence of NAC followed by photoirradiation for 15 to 30 mins by PAGE analysis; assay type: nucleic-acid assay
# MIA PaCa-2 = assay: Cytotoxicity against human MIAPaCa2 cells harboring G12C point mutation assessed as reduction in metabolic activity after 48 hrs in dark followed by photoirradiation in presence of NADH by resazurin assay; assay type: functional, cell-based
# Quadruplex DNA [18] = assay: Binding affinity to NRAS RNA g-quadruplex (unknown origin) by fluorescence spectroscopy; assay type: nucleic-acid assay
# PANC-1 [19] = assay: Induction of apoptosis in human PANC1 cells assessed as early apoptotic cells at 15 nM and photoirradiated at 7.2 J/cm2 measured after 6 to 24 hrs in presence of NAC by annexin-V-propidium iodide staining based FACScalibur flow cytometry analysis (reference value: 3.1 %); assay type: functional
# [20] = target: GTPase KRas (Homo sapiens) (UniProt P01116); assay: Inhibition of KRAS in human PANC1 cells assessed as decrease in KRAS mRNA level at 15 nM followed by 7.2 J/cm2 irradiation after 4 hrs by qRT-PCR analysis; assay type: cell-based
# Sequence of GTPase KRas (Homo sapiens) (P01116 whole entry, looked up): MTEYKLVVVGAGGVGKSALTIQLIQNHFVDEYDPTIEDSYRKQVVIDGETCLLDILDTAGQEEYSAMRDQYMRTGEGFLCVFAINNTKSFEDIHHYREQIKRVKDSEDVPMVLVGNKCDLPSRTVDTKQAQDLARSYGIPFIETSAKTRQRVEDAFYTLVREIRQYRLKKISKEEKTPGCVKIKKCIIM
# PANC-1 [21] = assay: Induction of apoptosis in human PANC1 cells assessed as necrotic cells at 10 nM and photoirradiated at 7.2 J/cm2 measured after 6 to 24 hrs by annexin-V-propidium iodide staining based FACScalibur flow cytometry analysis (reference value: 0.7 %); assay type: functional
# PANC-1 [22] = assay: Cytotoxicity against human PANC1 cells assessed as reduction in metabolic activity after 48 hrs in dark followed by photoirradiation in presence of NADH by resazurin assay; assay type: functional, cell-based; settings: PANC-1, light or radiation study
# PANC-1 [23] = assay: Induction of ROS generation in human PANC1 cells assessed as cleavage of CM-H2DCFDA to CM-H2DCF by intracellular esterase by measuring green fluorescence emission incubated for 16 hrs followed by 7.2J/cm2 photoirradiation and subsequent compound washout measured after 40 mins by CM-H2DCFDA staining-based FACSCalibur flow cytometry; assay type: functional, cell-based
# PANC-1 [24] = assay: Induction of apoptosis in human PANC1 cells assessed as viable cells at 15 nM and photoirradiated at 7.2 J/cm2 measured after 6 to 24 hrs by annexin-V-propidium iodide staining based FACScalibur flow cytometry analysis (reference value: 91.9 %); assay type: functional; settings: PANC-1, light or radiation study, read-out: Activity
# PANC-1 [25] = assay: Induction of apoptosis in human PANC1 cells assessed as viable cells at 5 nM and photoirradiated at 7.2 J/cm2 measured after 6 to 24 hrs by annexin-V-propidium iodide staining based FACScalibur flow cytometry analysis (reference value: 91.9 %); assay type: functional; settings: PANC-1, light or radiation study, read-out: Activity
# Quadruplex DNA [26] = assay: Binding affinity to human KRAS utr-z RNA g-quadruplex assessed as compound-RNA complex stoichiometry ratio of 6:1 by Job's plot analysis; assay type: nucleic-acid assay
# PANC-1 [27] = assay: Induction of apoptosis in human PANC1 cells assessed as necrotic cells at 5 nM and photoirradiated at 7.2 J/cm2 measured after 6 to 24 hrs in presence of NAC by annexin-V-propidium iodide staining based FACScalibur flow cytometry analysis (reference value: 1 %); assay type: functional
# Quadruplex DNA [28] = assay: Binding affinity to human KRAS utr-z RNA g-quadruplex at 40 degree C by SPR analysis; assay type: nucleic-acid assay
smiles,measurement,setting,value
CCCCCCCCCCCCCC[n+]1ccc(-c2c3nc(c(-c4cc[n+](C)cc4)c4ccc([nH]4)c(-c4cc[n+](C)cc4)c4nc(c(-c5cc[n+](C)cc5)c5ccc2[nH]5)C=C4)C=C3)cc1.[I-].[I-].[I-].[I-],Activity,PANC-1 [1],1.7%
same,Activity,PANC-1 [2],3.1%
same,Activity,[3],Active
same,Activity,PANC-1 [4],1.1%
same,Activity,PANC-1 [5],2.4%
same,Activity,[6],inactive
same,Activity,PANC-1 [7],10.9%
same,Activity,PANC-1 [8],5.1%
same,Activity,Quadruplex DNA [9],30%
same,Drug uptake,[10],24%
same,Activity,[11],Non-Toxic
same,Drug uptake,[12],Active
same,Activity,PANC-1 [13],Active
same,inhibition,[14],50%
same,Kd,Quadruplex DNA [15],219 nM
same,inhibition,[16],Active
same,Activity,Quadruplex DNA [17],inactive
same,Activity,MIA PaCa-2,Active
same,Kd,Quadruplex DNA [18],107 nM
same,Activity,PANC-1 [19],3.9%
same,inhibition,[20],Active
same,Activity,PANC-1 [21],2.2%
same,EC50,PANC-1 [22],13.7 nM
same,Activity,PANC-1 [23],Dose-dependent effect
same,viability at 0.015 µM,PANC-1 [24],70.6%
same,viability at 0.005 µM,PANC-1 [25],88.2%
same,Activity,Quadruplex DNA [26],Active
same,Activity,PANC-1 [27],1.2%
same,Kd,Quadruplex DNA [28],82 to 202 nM
